The test system of data set [1] is bovine P450 11A1. On the set-up: method as in PMID 7056749. As to conditions: bovine P450 11A1, within dead time of stopped-flow ref 12; cited from earlier work.
In data set [2] the test system is bovine P450 11A1. Also on record: method as in PMID 217878. As to conditions: equilibrium dialysis, bovine P450 11A1 ref 26; cited from earlier work.
Data set [3] addresses T1, human P450 11A1 (Homo sapiens, UniProt P05108).
T1 construct: M A S T R S P R P F N E I P S P G D N; Met-Ala (N-terminal start residues in place of the transit peptide and Ile40) (N); made in house; host or cells: E. coli C41(DE3) with GroES/GroEL, vector pET23C(+)
T1 sequence (P05108 41-521 limits assumed): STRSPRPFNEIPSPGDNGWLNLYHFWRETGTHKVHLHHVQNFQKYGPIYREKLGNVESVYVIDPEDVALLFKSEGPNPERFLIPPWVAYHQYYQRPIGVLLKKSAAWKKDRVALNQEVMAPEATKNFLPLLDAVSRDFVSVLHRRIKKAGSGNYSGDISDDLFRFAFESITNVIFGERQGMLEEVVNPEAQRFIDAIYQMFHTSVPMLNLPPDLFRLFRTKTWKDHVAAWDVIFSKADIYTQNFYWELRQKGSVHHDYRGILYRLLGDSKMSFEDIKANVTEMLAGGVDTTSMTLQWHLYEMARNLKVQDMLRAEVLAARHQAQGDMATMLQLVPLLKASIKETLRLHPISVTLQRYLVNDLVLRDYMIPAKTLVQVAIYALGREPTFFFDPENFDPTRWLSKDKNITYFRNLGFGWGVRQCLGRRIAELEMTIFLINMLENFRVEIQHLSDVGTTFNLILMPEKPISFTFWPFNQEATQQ
Nature of the data set: Steady-state spectral (type I) binding titration, Kd determination. Here is the method: Ligand binding constants were determined from the low-to high-spin (hypsochromic) spectral transition that occurs at the P450 heme as substrate entering the active site replaces water as the sixth axial heme ligand. […] As a result, we subsequently measured koff values of the P450-sterol complexes, which were consistent with the low Kd values observed (see below). Binding titrations were repeated in the presence of Adx (1 M equivalent, Fig. 6), although no significant effect was observed, even when Adx was added in excess (10-fold with cholesterol as the substrate, data not shown).
Spectra were recorded using either an OLIS-Cary 14 or OLIS-Aminco DW2a instrument (On-Line Instrument Systems) in the split-beam mode. The OLIS-Cary 14 instrument was used in the P450 11A1 titrations with a 10-cm cell (Starna Cells, catalog no. 34-Q-100, volume 25 ml).
Kd values were determined by difference spectroscopy as previously reported ([33], [43]) but with some modifications. Briefly, a long-path quartz cuvette (10 cm, 25 ml) containing P450 11A1 (0.1 μM, in 100 mM potassium phosphate buffer (pH 7.4)) was prepared and a baseline was recorded in an OLIS-Cary 14 spectrophotometer. Where indicated, the redox partner Adx was added in equimolar concentration (0.1 μM) to P450. Sterol solutions (in 45% HPCD, w/v) were added to the cuvette, the contents of the cuvette were inverted to mix, and a spectrum was recorded (350–500 nm) after each addition. The total volume added to each cuvette was kept ≤2% (v/v, 0.25 ml) in the assay. The maximum absorbance difference (usually ΔA390−A418) was plotted against the total sterol concentration, and the data were fit to a quadratic equation in GraphPad Prism software (GraphPad, https://www.graphpad.com) to estimate the dissociation constant (Kd). A quadratic equation was used to correct the ligand concentration for the enzyme-bound concentration (used as Y=B+A/2∗1/E∗((Kd+E+X)−(Kd+E+X)^2−(4∗E∗X)) (or Y = B + (A/2)∗(1/E)∗((Kd + E + X)-sqrt((Kd + E + X)∧2 -(4∗E∗X)) in Prism software), where E = enzyme concentration, Kd = dissociation constant, and X = […]).

Data set [4] has as its target T1, human P450 11A1. Nature of the data set: Stopped-flow ketoconazole trap, koff and binding rate measurements. As to conditions: for koff: read-out: koff of P450-sterol complex, 2 μM P450 11A1 + 2 μM steroid mixed with 20 μM ketoconazole, 23 °C, without Adx. Here is the method:
Interaction of the azole nitrogen atom with the P450 heme produces a bathochromic (“type II”) spectral shift (to ∼430 nm)—an inverse effect of the binding of substrate.
Measurement of kon rate(s) was not performed because the sterols are delivered in a solution of HPCD, from which the dissociation rate is not known.
Determinations of koff rates were performed as previously described ([33]).

Setting [5] is: 0.10 μM P450 11A1, 10 cm cuvette, with 0.10 μM Adx, quadratic fit, read-out: Kd, (+) Adx.
The mark [6] stands for this setting: 0.10 μM P450 11A1, 10 cm cuvette, without Adx, quadratic fit, read-out: Kd, (−) Adx.

Like-named read-outs stand apart in the source and are kept apart here. Some results are limits rather than exact numbers.

On to `CC(C)CC[C@@H](O)[C@](C)(O)[C@H]1CC[C@H]2[C@@H]3CC=C4C[C@@H](O)CC[C@]4(C)[C@H]3CC[C@]12C` [20R,22R-(OH)2 Chol, (20R,22R)-Cholest-5-ene-3β,20,22-triol], for which the “rates of binding and dissociation” value with bovine P450 11A1 [1] is above 300 s⁻¹. Moreover, the Kd – broadly, the constant that tells how readily two partners part at equilibrium – in the data set on bovine P450 11A1 [2] is 81 nM; at human P450 11A1 [3] (setting [5]), 40 ± 10 nM; on human P450 11A1 [3] (setting [6]), 30 ± 20 nM.
For `CC(=O)[C@H]1CC[C@H]2[C@@H]3CC=C4C[C@@H](O)CC[C@]4(C)[C@H]3CC[C@]12C` [Pregnenolone], the Kd at human P450 11A1 [3] (setting [5]) was 560 ± 120 nM; on human P450 11A1 [3] (setting [6]), 480 ± 220 nM.
For `CC(C)CC[C@@H](O)[C@@H](C)[C@H]1CC[C@H]2[C@@H]3CC=C4C[C@@H](O)CC[C@]4(C)[C@H]3CC[C@]12C` [22R-OH Chol, 22R-hydroxycholesterol], on human P450 11A1 [4] (2 μM P450 11A1 + 2 μM steroid mixed with 20 μM ketoconazole, 23 °C, without Adx), the “koff of P450-sterol complex” value amounted to 0.044 ± 0.001 s⁻¹. The koff (commonly a measure of how fast the partners let go of each other) at human P450 11A1 [4] was found to be 0.04 s⁻¹. Besides, the Kd with bovine P450 11A1 [2] was 4.9 nM; on human P450 11A1 [3] (Kd, 100 nM P450 11A1, 10-cm cell, quadratic fitting), around 20 nM; at human P450 11A1 [3] (Kd, (+) Adx, 0.10 μM P450 11A1, 10 cm cuvette, with 0.10 μM Adx, quadratic fit), 20 ± 3 nM; on human P450 11A1 [3] (Kd, (−) Adx, 0.10 μM P450 11A1, 10 cm cuvette, without Adx, quadratic fit), 20 ± 10 nM.
On human P450 11A1 [4] (20 μM final concentration, in HPCD), `CC(C)CCC[C@@H](C)[C@H]1CC[C@H]2[C@@H]3CC=C4C[C@@H](O)CC[C@]4(C)[C@H]3CC[C@]12C` [Cholesterol] yielded an observed binding rate of 0.05 s⁻¹. On human P450 11A1 [4] (in the presence of HPCD), the “apparent kon slower than kon of ketoconazole to unliganded P450” value is above 200 fold. The kon (commonly the rate constant with which the complex forms) on human P450 11A1 [4] (read-out: apparent kon) came out at 2500 M⁻¹ s⁻¹. At human P450 11A1 [4], the koff amounted to 0.24 ± 0.01 s⁻¹. Further, the “rates of binding and dissociation” value in the data set on bovine P450 11A1 [1] is above 300 s⁻¹. The dissociation constant (Kd) on human P450 11A1 [3] (setting [5]) is 110 ± 10 nM; on human P450 11A1 [3] (setting [6]), 120 ± 10 nM.
For the compound `CC(C)CC[C@H](O)[C@](C)(O)[C@H]1CC[C@H]2[C@@H]3CC=C4C[C@@H](O)CC[C@]4(C)[C@H]3CC[C@]12C` [20R,22S-(OH)2 Chol, (20R,22S)-Cholest-5-ene 3β,20,22-triol], the Kd was 90 ± 20 nM at human P450 11A1 [3] (setting [5]) and 120 ± 30 nM on human P450 11A1 [3] (setting [6]).

The values above are taken from article PMC10716780, “The multistep oxidation of cholesterol to pregnenolone by human cytochrome P450 11A1 is highly processive” (The Journal of Biological Chemistry, 2023).
